The test system of the test is T1, primary mouse cortical neurons.
T1 construct: primary cortical neurons, DIV 10
Description: cells. Set-up: Protection from NMDA-induced (30 uM, 10 min) neuronal death; Hoechst nuclear morphology by automated microscopy. The conditions noted are these: Cortical neurone, 20 h, read-out: % inhibition, inhibition of NMDA-induced cell death (protection score), 30 min pre-treatment. As to the method:
On DIV 10, compounds were applied to the cells reaching an end concentration of 10 μM. Cells were incubated for 30 min at 37 °C, 5% CO2 before adding NMDA (30 μM). Cells were incubated for another 10 min in the incubator, then washed twice with defined minimal medium containing 10 μM of the respective compound and incubated for an additional 20 h before readout. Untreated (no NMDA) and NMDA-only stimulated wells were treated with 0.1% DMSO. […] After 15 min of incubation at room temperature, cells were washed twice with phosphate buffered saline. […] Dead neurons were identified by amorphous or shrunken nuclei using CellProfiler and CellProfiler Analyst software. For all cell death analyses the experimental unit (N) is defined as an independent experiment using an independent neuronal preparation. For each independent experiment, data from 3 replicate wells (i.e., from 36 images), representing an average of 3000 cells was analyzed per condition. The survival rate S was calculated by dividing the number of living cells by the total number of cells. The survival rate was then used to calculate the protection score according to Scompound−Svehicle/Suntreated−Svehicle×100=%protection , where ‘compound’ refers to compound + NMDA treatment, ‘vehicle’ refers to vehicle + NMDA treatment, and ‘untreated’ refers to DMSO control. […] As a proof of principle, we next used our assay to screen two commercially available drug libraries. In these screens, primary cortical cells were incubated with test compounds at 10 μM concentration for 30 min before addition of 30 μM NMDA. After 10 min NMDA treatment, cells were washed with fresh medium and kept in the presence of test compounds for 20 h until assessment of cell viability. […] This library covers structurally diverse drugs from several fields such as oncology, cardiology, immunology, and neurology/psychiatry.

This is an account of results in PMC7489219 (Molecular Brain, 2020).

Structures can show the parent of a compound that is named as a salt.

Usually inhibition stands for the relative decrease from the control value, in per cent. With `CN1[C@@H]2CC[C@H]1CC(OC(=O)C(CO)c1ccccc1)C2` (some centres unmarked) [Atropine], the inhibition at 10 µM is 9.73%. Then `CN1CCCC(n2nc(Cc3ccc(Cl)cc3)c3ccccc3c2=O)CC1` (centres unmarked) [Azelastine hydrochloride (Astelin)], with -2.32%; and `C[C@H]1[C@H](NC(=O)/C(=N\OC(C)(C)C(=O)O)c2csc(N)n2)C(=O)N1S(=O)(=O)O` [Aztreonam (Azactam, Cayston)], with -1.22%; and `Cn1c(CNc2ccc(C(=N)N)cc2)nc2cc(C(=O)N(CCC(=O)O)c3ccccn3)ccc21` [BIBR 953 (Dabigatran etexilate, Pradaxa)], with -1.4%. Then `CCCCCCOC(=O)NC(=N)c1ccc(NCc2nc3cc(C(=O)N(CCC(=O)OCC)c4ccccn4)ccc3n2C)cc1` [BIBR-1048 (Dabigatran)], with 0.466%; and `O=c1cc(-c2ccccc2)oc2cc(O)c(O)c(O)c12` [Baicalein], with -2.71%; and `O=C(O)[C@H]1O[C@@H](Oc2cc3oc(-c4ccccc4)cc(=O)c3c(O)c2O)[C@H](O)[C@@H](O)[C@@H]1O` [Baicalin], with -3.47%. Then `CCOC(=O)[C@H](CCc1ccccc1)N[C@H]1CCc2ccccc2N(CC(=O)O)C1=O` [Benazepril hydrochloride], with -11.1%; and `Cn1c(CCCC(=O)O)nc2cc(N(CCCl)CCCl)ccc21` [Bendamustine HCL], with 9.61%. For `NC(CO)C(=O)NNCc1ccc(O)c(O)c1O` (centres unmarked) [Benserazide], the inhibition at 10 µM is 6.78%. Then `COc1ccc2cc3[n+](cc2c1OC)CCc1cc2c(cc1-3)OCO2` [Berberine Hydrochloride], with -2.08%. With `COc1c(O)cc2c(c1O)[C@@H]1O[C@H](CO)[C@@H](O)[C@H](O)[C@H]1OC2=O` [Bergenin (Cuscutin)] the figure was 1.66%. With `CCC(=O)OCC(=O)[C@@]1(OC(=O)CC)[C@@H](C)C[C@H]2[C@@H]3CCC4=CC(=O)C=C[C@]4(C)[C@@]3(F)[C@@H](O)C[C@@]21C` [Betamethasone dipropionate] the figure was 6.47%; with `CCCCC(=O)O[C@]1(C(=O)CO)[C@@H](C)C[C@H]2[C@@H]3CCC4=CC(=O)C=C[C@]4(C)[C@@]3(F)[C@@H](O)C[C@@]21C` [Betamethasone valerate (Betnovate)], 6.58%; with `C[C@H]1C[C@H]2[C@@H]3CCC4=CC(=O)C=C[C@]4(C)[C@H]3C(=O)C[C@]2(C)[C@@]1(O)C(=O)CO` [Betapar (Meprednisone)], 11.6%. For the compound `CC(C[N+](C)(C)C)OC(N)=O` (centres unmarked) [Bethanechol chloride], the inhibition at 10 µM was -1.35%. Turning to `C[C@@H](O)[C@H]1C(=O)N2C(C(=O)[O-])=C(SC3Cn4cnc[n+]4C3)[C@H](C)[C@H]12` (some centres unmarked) [Biapenem], the inhibition at 10 µM stood at 3.3%. With `CC(O)(CS(=O)(=O)c1ccc(F)cc1)C(=O)Nc1ccc(C#N)c(C(F)(F)F)c1` (centres unmarked) [Bicalutamide (Casodex)] the figure was -3.38%. For the compound `CCNC(=O)CCC/C=C\C[C@@H]1[C@@H](/C=C/[C@@H](O)CCc2ccccc2)[C@H](O)C[C@@H]1O` [Bimatoprost], the inhibition at 10 µM was 9.97%. Then `COc1ccc(-c2coc3cc(O)cc(O)c3c2=O)cc1` [Biochanin A (4-Methylgenistein)], with 3%. As for `CC(C)NCC(O)COc1ccc(COCCOC(C)C)cc1` (centres unmarked) [Bisoprolol], the inhibition at 10 µM was 10%.

Regarding `Cc1c(N)nc([C@H](CC(N)=O)NC[C@H](N)C(N)=O)nc1C(=O)N[C@H](C(=O)N[C@H](C)[C@@H](O)[C@H](C)C(=O)N[C@H](C(=O)NCCc1nc(-c2nc(C(=O)NCCC[S+](C)C)cs2)cs1)[C@@H](C)O)[C@@H](O[C@@H]1O[C@@H](CO)[C@@H](O)[C@H](O)[C@@H]1O[C@H]1O[C@H](CO)[C@@H](O)[C@H](OC(N)=O)[C@@H]1O)c1cnc[nH]1` [Bleomycin sulfate], the inhibition at 10 µM was -2.58%.

Take `CC(C)C[C@H](NC(=O)[C@H](Cc1ccccc1)NC(=O)c1cnccn1)B(O)O` [Bortezomib (Velcade)]: the inhibition at 10 µM was -4.79%.

As to `CCCC1O[C@@H]2C[C@H]3[C@@H]4CCC5=CC(=O)C=C[C@]5(C)[C@H]4[C@@H](O)C[C@]3(C)[C@]2(C(=O)CO)O1` (some centres unmarked) [Budesonide], the inhibition at 10 µM was -9.49%. With `CCCCNc1cc(C(=O)O)cc(S(N)(=O)=O)c1Oc1ccccc1` [Bumetanide] the figure was -2.16%. With `CCCCN1CCCCC1C(=O)Nc1c(C)cccc1C` (centres unmarked) [Bupivacaine hydrochloride (Marcain)] the figure was -1.92%; with `CS(=O)(=O)OCCCCOS(C)(=O)=O` [Busulfan (Myleran, Busulfex)], 15.7%; with `CCCC[N+]1(C)[C@@H]2CC(OC(=O)[C@H](CO)c3ccccc3)C[C@H]1[C@@H]1O[C@@H]12` (some centres unmarked) [Butylscopolamine bromide (Scopolamine butylbromide)], 5%.

As for `O=C(O)/C=C/c1ccc(O)c(O)c1` [Caffeic acid], the inhibition at 10 µM was -2.37%.

`CC[C@@]1(O)C(=O)OCc2c1cc1n(c2=O)Cc2cc3ccccc3nc2-1` [Camptothecin]: the inhibition at 10 µM is -13.4%. For the compound `CCOc1nc2cccc(C(=O)OC(C)OC(=O)OC3CCCCC3)c2n1Cc1ccc(-c2ccccc2-c2nn[nH]n2)cc1` (centres unmarked) [Candesartan cilexetil (Atacand)], the inhibition at 10 µM is 7.42%.

As for `CCCCCOC(=O)Nc1nc(=O)n([C@@H]2O[C@H](C)[C@@H](O)[C@H]2O)cc1F` [Capecitabine (Xeloda)], the inhibition at 10 µM is 3.74%. Then `COc1cc(CNC(=O)CCCC/C=C/C(C)C)ccc1O` [Capsaicin], with -2.28%; and `NC(=O)N1c2ccccc2C=Cc2ccccc21` [Carbamazepine (Carbatrol)], with 2.33%; and `C[C@@](Cc1ccc(O)c(O)c1)(NN)C(=O)O` [Carbidopa], with -2.32%. With `C=CC1=C(C(=O)O)N2C(=O)[C@@H](NC(=O)/C(=N\O)c3csc(N)n3)[C@H]2SC1` [Cefdinir (Omnicef)] the figure was 44.5%. With `CO/N=C(\C(=O)N[C@@H]1C(=O)N2C(C(=O)OCOC(=O)C(C)(C)C)=C(/C=C\c3scnc3C)CS[C@H]12)c1csc(N)n1` [Cefditoren pivoxil] the figure was 8.16%. Take `Cc1ccc(-c2cc(C(F)(F)F)nn2-c2ccc(S(N)(=O)=O)cc2)cc1` [Celecoxib]: the inhibition at 10 µM was -7.05%. Then `O=C(O)COCCN1CCN(C(c2ccccc2)c2ccc(Cl)cc2)CC1` (centres unmarked) [Cetirizine Dihydrochloride], with -10.5%; and `C[C@H](CCC(=O)O)[C@H]1CC[C@H]2[C@@H]3[C@H](O)C[C@@H]4C[C@H](O)CC[C@]4(C)[C@H]3CC[C@]12C` [Chenodeoxycholic acid], with -2.92%. With `O=C(N[C@H](CO)[C@H](O)c1ccc([N+](=O)[O-])cc1)C(Cl)Cl` [Chloramphenicol (Chloromycetin)] the figure was 0.272%. With `O=C(/C=C/c1ccc(O)c(O)c1)O[C@@H]1C[C@](O)(C(=O)O)C[C@@H](O)[C@H]1O` [Chlorogenic acid] the figure was -2.16%; with `NS(=O)(=O)c1cc2c(cc1Cl)N=CNS2(=O)=O` [Chlorothiazide], 31.3%; with `Oc1c(Cl)cc(Cl)c2cccnc12` [Chloroxine], -4.86%.
